How the values were obtained:
Plasmodium falciparum [1] = assay: Antimalarial activity: Asexual Blood Stage Plasmodium falciparum 3D7 IC50 (uM); format: functional, organism-based
Plasmodium berghei [2] = assay: Antimalarial activity: Liver Stage Plasmodium berghei sporozoite Luciferase assay: inhibition at 10 uM (%); format: functional
Plasmodium berghei [3] = assay: Antimalarial activity: Liver Stage Plasmodium berghei sporozoite Luciferase assay IC50 (uM); format: functional, organism-based
HepG2 [4] = assay: Cytotoxicity data HepG2 CC20 (uM); format: functional
Plasmodium falciparum [5] = assay: Antimalarial activity: Gametocytes Plasmodium falciparum NF54 Gametocytes Stage V: inhibition at 10 uM (%); format: functional
Plasmodium falciparum [6] = assay: Antimalarial activity: Asexual Blood Stage Plasmodium falciparum W2 IC50 (uM); format: functional, organism-based
HepG2 [7] = assay: HepG2 CC50 (uM) Cytotoxicity; format: functional; settings: Homo sapiens
Plasmodium falciparum [8] = assay: Antimalarial activity: Asexual Blood Stage Plasmodium falciparum Dd2 IC50 (uM); format: functional, organism-based

SMILES	IC50 (Plasmodium falciparum [1]) [nM]	Inhibition (Plasmodium berghei [2]) [%]	IC50 (Plasmodium berghei [3]) [nM]	CC20 (HepG2 [4]) [nM]	Inhibition (Plasmodium falciparum [5]) [%]	IC50 (Plasmodium falciparum [6]) [nM]	CC50 (HepG2 [7]) [nM]	IC50 (Plasmodium falciparum [8]) [nM]
Cc1cc(C)n2nc(C(=O)Nc3cc(C(F)(F)F)ccc3N3CCOCC3)nc2n1	220	88	1210	>80000	4	70	> 10000	220
O=C(NC1CCN(c2ccnc3ccccc23)C1)c1cccc(C(F)(F)F)c1 (stereo not drawn)	710	99	6540	5820	1	2060	> 10000	780
C[C@H](C(N)=O)N1CCCC[C@H]1c1ccc(OCc2cccc(F)c2)cc1	> 2000	95	1360	>80000	0		> 10000	> 2000
Nc1ccc(C(=O)Nc2ccc(-c3nc4ccccc4o3)cc2)cc1	1550	89	> 10000	18200	0		> 10000	> 2000
CC(C)(CN)c1nc(-c2ccc(Cl)c(O)c2)c(-c2ccnc(N)n2)[nH]1	410	100	320	5770	9	1050	> 10000	190
O=C(NC1CC1)c1ccc(N2CCC(Cc3ccccc3)CC2)nc1	1330	100	1410	>80000	28	820	> 10000	1670
O=C(Nc1ccc(N2CCNCC2)nc1)c1oc(-c2ccccc2)nc1C(F)(F)F	1220	78	2550	13400	44	3000	> 10000	1640
CN1CCN(c2nccc3nc(-c4ccc(F)c(F)c4)[nH]c23)CC1	1130	56	> 10000	10300	32	2110	> 10000	1710
Cc1cc(C(=O)Nc2cnn(Cc3ccc(Cl)cc3Cl)c2)no1	1880	98	1390	30600	11		> 10000	> 2000
CCOc1ccccc1NC(C)C(=O)Nc1cc(C(F)(F)F)ccc1N1CCOCC1 (stereo not drawn)	420	56	> 10000	29800	39	790	> 10000	610
Cc1ccc(NC(=O)c2cc(S(=O)(=O)NC(C)(C)C)ccc2C)nc1	930	82	7350	>80000	2	1180	> 7500	2510
Cc1ccc(Oc2ccc(NC(=O)CNc3ccccc3N3CCCC3=O)cc2)cc1	480	89	9100	17500	0	640	9800	600
NS(=O)(=O)c1cncc(-c2ccc3nccc(-c4cn[nH]c4)c3n2)c1	600	96	2170	490	70	730		630
O=C(Nc1cccc(Cl)c1)c1cnc(N2CCN(c3ccncc3)CC2)c(Cl)c1	830	99	2350	2680	51	1550	> 10000	1330
Cc1nc(-c2cccc(NCc3ccccc3)c2)[nH]c1C	1940	100	4590	27700	16	2590	> 10000	5030
CCOc1ccc(-c2nc(NC(=O)CS(=O)(=O)c3ccccc3)sc2C)cc1	660	59	> 10000	20000	17	1970	> 10000	1800
Cc1cccc(C(=O)Nc2ccnc(N(C)C3CCN(CC(C)C)CC3)c2)c1	2100	66	> 10000	13700	10	9250	> 10000	5180
OCCc1ccc(Nc2nccc(-c3nnc4ccccn34)n2)cc1	1080	99	1470	1670	11	690	8100	1630
Cc1cc(C(=O)Nc2ccc(-c3ccccc3)cc2)no1	820	97	> 10000	>80000	24	540	> 10000	1410

SMILES	IC50 (Plasmodium falciparum [1]) [nM]	Inhibition (Plasmodium berghei [2]) [%]	IC50 (Plasmodium berghei [3]) [nM]	CC20 (HepG2 [4]) [nM]	Inhibition (Plasmodium falciparum [5]) [%]	IC50 (Plasmodium falciparum [6]) [nM]	CC50 (HepG2 [7]) [nM]	IC50 (Plasmodium falciparum [8]) [nM]
O=C1Nc2ccc(Br)cc2C12NCCc1c2[nH]c2ccccc12 (stereo not drawn)	510	57	> 10000	19900	38	620	> 10000	410
CC1CC1C(=O)NC1CCN(CC2(c3ccccc3)CCCCC2)CC1 (stereo not drawn)	580	100	2250	>80000	24	310	> 10000	920
CC(C)C(NC(=O)Cc1cccc2ccccc12)C(=O)Nc1cccc(C#N)c1 (stereo not drawn)	960	76	9150	14000	5	1140	> 10000	3100
Cc1nnc(NC(=O)c2cn(-c3ccccc3)nc2-c2ccccc2C)o1	710	100	170	920	16	680	> 10000	1500
C[C@]1(O)C[C@@H](c2nc(-c3ccc4ccc(-c5ccccc5)nc4c3)c3c(N)nccn32)C1 [LINSITINIB]	> 2000	98	360	4670	16		> 10000	> 2000
CN(C)CCNC(=O)N1CCCN(c2ncnc3cc(-c4ccccc4)sc23)CC1	1580	73	1970	6210	5	3850	> 10000	2910
COc1cncc(-c2cncc(N3CCN(c4ccncc4)CC3)n2)c1	100	64	> 7500	4650	12	180	> 10000	150
O=C(NC1CC1)c1ccc(N2CCOc3ccc(Cl)cc32)s1	1030	98	3480		18		> 10000	
COc1cccc(-c2cc3c(Nc4cccnc4)nccc3[nH]2)c1	1280	77	> 10000	2290	6	2530	> 10000	2490
COc1ccc(CN2CCOc3ccc(C(C)(O)CN(C)C)cc3C2)cc1C (stereo not drawn)	> 2000	64	930	17400	7		> 10000	1470
CNC(=O)C1Cc2c([nH]c3cc(Cl)ccc23)C2(CCN(CCc3ccccc3)CC2)N1 (stereo not drawn)	860	99	4510	10000	33	4550	> 10000	1950
Cc1ccc(S(=O)(=O)N2CCN(C(=O)c3cc(-c4ccccc4)n[nH]3)CC2)cc1	1040	92	630	>80000	17	400	> 10000	1730
c1csc(-c2cnc3sc(NCC4CCOCC4)nn23)c1	1370	58	> 10000	30000	18		> 10000	1110
Cc1c[nH]c(CCNC(=O)c2cc(-c3ccc(Cl)cc3)cs2)n1	810	85	8570	6900	15	2860	> 10000	2020
C[C@H](C(N)=O)N1CCCC[C@@H]1c1ccc(OCc2cccc(F)c2)cc1		99	1770	21800	5		> 10000	
NCC(=O)N1CCn2c(nc(-c3ccccc3)c2Nc2ccc3c(c2)OCO3)C1	640	100	3780	>80000	56	540	> 10000	890
O=C1N(Cc2cc3ccccc3s2)CC2CN(Cc3ccccc3)CCN12 (stereo not drawn)	1160	100	200	26400	53	1330	> 10000	1260
Cc1cccc(NC(=O)c2cc(S(=O)(=O)N(C)c3ccc(F)cc3)ccc2Cl)n1	1580	86	6770	26400	3	1070	> 10000	> 2000
